These results are taken from PMC3170320, “Minimal Antizyme Peptide Fully Functioning in the Binding and Inhibition of Ornithine Decarboxylase and Antizyme Inhibitor” (PLoS ONE, 2011).

In experiment [1] the target is human ODC (equilibrated with equimolar AZI). Put plainly: ODC enzyme activity inhibition by AZ peptides in the presence of AZI. Type of experiment: biochemical. The conditions noted are these: for IC50 (with AZI)/IC50 (without AZI): ratio with/without equimolar AZI. The protocol:
AZ has a greater affinity for AZI than ODC, such that the formation of an AZ-AZI heterodimer will release the ODC monomer from an AZ-ODC complex and rapidly restore ODC enzyme activity. Here, we examined the inhibition of ODC enzyme activity by AZ peptides in the presence of AZI. The ODC enzyme was first pre-incubated with AZI, keeping the molar ratio of AZI monomer/ODC monomer at unity. […] Table 1 illustrates the IC50 values of the AZ peptides in the presence of AZI, showing that all of the IC50 values for the AZ peptides with AZI were larger than the values without AZI.
Figure 4 Relative ODC enzyme activities in the presence of AZ and AZI. ODC enzymes equilibrated with equimolar AZI were inhibited by various concentrations of AZ peptides. The concentrations of AZI and ODC were fixed at 18.9 µg/mL and 20 µg/mL, respectively (the ratio of AZI monomer versus ODC monomer was fixed at 1). Panels A–H show the inhibition curves of ODC for each AZ peptide in the absence (closed circles) and in the presence (open circles) of AZI.
(§1) The ODC enzyme activity was determined using a CO2-L3K assay kit (DCL, Charlottetown, Canada) at 37°C. The continuous measurement of ODC enzyme activity was coupled to the carboxylation of PEP to oxaloacetate and the oxidation of oxaloacetate to malate, as previously reported. The reaction mixture contains 30 mM Tris-HCl at pH 7.8, 10 mM ornithine, 0.2 mM […] and 0.4 ml of the CO2-L3K assay kit solution, which contains 12.5 mM PEP, >0.4 U/ml phosphoenolpyruvate carboxylase (microbial), >4.1 U/ml malate dehydrogenase (mammalian) and 0.6 mM NADH analog in a final volume of 0.5 ml.
(§2) To evaluate the inhibitory effect of AZ, the inhibited ODC enzyme activity versus [AZ] was fitted with the following equation to estimate the IC50 value: [drawing 1] where A and B are the minimum and maximum ODC enzyme activity, respectively, and the Hill slope gives the largest slope of the curve. The IC50 value represents the concentration of AZ required for 50% inhibition of ODC enzyme activity. All of the calculations were done using the SigmaPlot 10.0 software program (Jandel, San Rafael, CA).

Experiment [2] deals with human ODC. Put plainly: ODC enzyme activity inhibition by AZ peptides (without AZI). Type of experiment: biochemical. As to conditions: for IC50 (AZ peptide)/IC50 (AZ_WT): ratio to AZ_WT; for IC50: ODC fixed at 20 µg/mL (0.19 µM), CO2-L3K coupled assay, 405 nm, 37°C, 30 mM Tris-HCl pH 7.8, 10 mM ornithine, 0.2 mM PLP, fit of inhibition curves; for ODC inhibition ability (in words): relative ODC activity, Figure 2. The protocol: Figure 2 Relative ODC enzyme activity in the presence of AZ peptides. The activity of ODC was inhibited by various concentrations of AZ peptides. ODC concentrations were fixed at 20 µg/mL (0.19 µM). The IC50 values of AZ peptides shown in Table 1 were derived from fitting these inhibition curves. The molar ratio refers to AZ peptide versus ODC monomer.
as §1
For the AZ inhibition experiment, the ODC enzyme (0.19 µM) and various amounts of AZ were added to the reaction mixture. The reaction was started after the ODC was added, and the absorbance decrease at 405 nm was continuously traced using a Perkin-Elmer Lamba-25 spectrophotometer. In this coupled reaction, the production of 1 mol of CO2 was concomitant with the oxidation of 1 mol of NADH analog. An extinction coefficient of 2410 M ^−1 was used for the NADH analog in the calculations.
as §2

For experiment [3], the system named is human ODC. Nature of the experiment: AZ peptide-ODC complex size distribution by analytical ultracentrifugation. As to conditions: for K d,AZ-ODC fold higher than that of AZ_WT: ratio to AZ_WT. The experiment is classed as binding. Here is the method: AZ binds ODC, dissociates the ODC dimer and then inactivates the enzyme, [20]. […] In order to determine the differential binding affinity of these AZ peptides toward ODC, the size distributions of ODC with different concentrations of AZ peptides were analyzed. All sedimentation data were globally fitted with the AB hetero-association model in the SEDPHAT program to obtain the dissociation constant (K d) between ODC and AZ (Figure 3 and Table 2).
Figure 3 Continuous sedimentation coefficient distribution of human ODC in the presence of AZ peptide. The concentration of ODC was fixed at 0.3 mg/mL with concentrations of AZ ranging from 0.015 to 0.2 mg/mL (the molar ratio of AZ/ODC ranged from 0.12 to 2) in a buffer of 30 mM Tris-HCl (pH 7.4) and 25 mM NaCl at 20°C. The sedimentation velocity data were globally fitted with the SEDTHAT program to obtain K d values for the AZ peptide-ODC complex (Table 2).
A Beckman Optima XL-A analytical ultracentrifuge was used for sedimentation velocity experiments. Reference and sample sectors in the centerpiece were filled with buffer (400 µl) and sample protein (0.3 mg/mL, 380 µl), respectively, and then the cell was built up in an An-50 Ti rotor. Sedimentation velocity experiments were performed at 20°C with a rotor speed of 42,000 rpm. The data were traced by absorbance at 280 nm in continuous mode, with a time interval of 420 s and a step size of 0.002 cm. A total of 20–30 scans at different time points were collected and fitted to a continuous size distribution model using the program SEDFIT [54]–[55]. All size distributions were calculated at 0.1 to 20 S with a confidence level of p = 0.95 and a resolution N of 200.
In order to determine the dissociation constants (K d) of the AZ peptide-ODC and AZ peptide-AZI complexes, sedimentation velocity experiments were performed at different concentrations of AZ or AZ peptide with a constant concentration of human ODC or AZI. The K d values of the AZ peptide-ODC and AZ peptide-AZI complexes were calculated by a global fitting of all sedimentation data in the AB hetero-association model in the SEDPHAT program [56]–[57]. The partial specific volumes of the proteins, the solvent densities, and the viscosity were calculated by the SEDNTERP program.

“Also recorded” adds a separate entry of the source.

Consider “AZ_87-124: truncated human AZ protein, residues 87-124”, for which the “IC50 (with AZI)/IC50 (without AZI)” value in experiment [1] is given as 3.0. Moreover, the “IC50 (AZ peptide)/IC50 (AZ_WT)” value at human ODC [2] was 3.2.

On to “AZ_87-228: truncated human AZ protein, residues 87-228”, for which, at human ODC [2], the IC50 came to 170 nM and the “IC50 (AZ peptide)/IC50 (AZ_WT)” value came out at 1.1.

With “AZ_95-124: truncated human AZ protein, residues 95-124”, the “IC50 (with AZI)/IC50 (without AZI)” value in experiment [1] was 3.0. For the same substance, on human ODC [2], the “IC50 (AZ peptide)/IC50 (AZ_WT)” value was 4.0.

Take “AZ_95-135: truncated human AZ protein, residues 95-135”: in experiment [1], the “IC50 (with AZI)/IC50 (without AZI)” value worked out at 3.1. The “IC50 (AZ peptide)/IC50 (AZ_WT)” value on human ODC [2] was found to be 3.2.

Regarding “AZ_95-169: truncated human AZ protein, lacking β-strand 6, residues 95-169”, at human ODC [2], half-maximal inhibition (IC50) required 370 nM, the “IC50 (AZ peptide)/IC50 (AZ_WT)” value was 2.3 and the “ODC inhibition ability (in words)” value is given as “displayed a noteworthy decrease in ODC inhibition ability”.

“AZ_95-176: minimal AZ peptide fully functioning in the binding of ODC and AZI, residues 95-176”: the “IC50 (with AZI)/IC50 (without AZI)” value in experiment [1] was 3.4. Besides, the “K d,AZ-ODC fold higher than that of AZ_WT” value with human ODC [3] is 7.8 fold. At human ODC [2], the “IC50 (AZ peptide)/IC50 (AZ_WT)” value amounted to 1.2 and the “ODC inhibition ability (in words)” value is on record as “retained most of the inhibition ability”.

Take “AZ_95-228: truncated human AZ protein, residues 95-228”: the “IC50 (with AZI)/IC50 (without AZI)” value in experiment [1] was 3.5. The “K d,AZ-ODC fold higher than that of AZ_WT” value in the experiment with human ODC [3] is 2.1 fold. In addition, at human ODC [2], the “IC50 (AZ peptide)/IC50 (AZ_WT)” value came out at 1.0 and the “ODC inhibition ability (in words)” value is listed as “also similar to that of AZ_WT”.

As to “AZ_100-124: truncated human AZ protein, residues 100-124”, at human ODC [2], the IC50 was 820 nM, the “IC50 (AZ peptide)/IC50 (AZ_WT)” value stood at 5.0 and the “ODC inhibition ability (in words)” value was “notably weaker inhibition ability than AZ_100-228”.

As for “AZ_100-135: truncated human AZ protein, residues 100-135”, on human ODC [2], the IC50 turned out to be 860 nM, the “IC50 (AZ peptide)/IC50 (AZ_WT)” value was determined as 5.3 and the “ODC inhibition ability (in words)” value is “notably weaker inhibition ability than AZ_100-228”.

In the case of “AZ_100-176: truncated human AZ protein, residues 100-176”, the “IC50 (with AZI)/IC50 (without AZI)” value in experiment [1] turned out to be 3.3. Moreover, at human ODC [2], the “IC50 (AZ peptide)/IC50 (AZ_WT)” value turned out to be 2.6 and the “ODC inhibition ability (in words)” value is “had a lower inhibition ability than that of AZ_100-228; also recorded: not as good as that of AZ_95-176 or AZ_100-228”.

As to “AZ_100-228: truncated human AZ protein, residues 100-228”, the “IC50 (with AZI)/IC50 (without AZI)” value in experiment [1] was 3.0. Moreover, the “K d,AZ-ODC fold higher than that of AZ_WT” value with human ODC [3] amounted to 7.5 fold. At human ODC [2], the “IC50 (AZ peptide)/IC50 (AZ_WT)” value was 1.3.

For the substance “AZ_106-228: truncated human AZ protein, residues 106-228”, at human ODC [2], the IC50 is 370 nM, the “IC50 (AZ peptide)/IC50 (AZ_WT)” value is 2.3 and the “ODC inhibition ability (in words)” value is recorded as “weaker inhibition ability than AZ_100-228”.

Consider “AZ_114-228: truncated human AZ protein, residues 114-228”, for which, on human ODC [2], the IC50 came out at 970 nM and the “IC50 (AZ peptide)/IC50 (AZ_WT)” value came out at 6.0.

Turning to “AZ_126-228: truncated human AZ protein, residues 126-228”, at human ODC [2], the IC50 worked out at 1190 nM and the “IC50 (AZ peptide)/IC50 (AZ_WT)” value amounted to 7.3.

As for “AZ_152-228: truncated human AZ protein, residues 152-228”, the “ODC inhibition ability (in words)” value with human ODC [2] is reported as “almost no ODC inhibition, even at high concentrations of AZ”.

With “AZ_177-228: truncated human AZ protein, residues 177-228 (HKNREDRAALLRTFSFLGFEIVRPGHPLVPKRPDACFMAYTFERESSGEEEE; UniProt P54368 177-228, looked up, fragment)”, the “ODC inhibition ability (in words)” value with human ODC [2] was “almost no ODC inhibition, even at high concentrations of AZ; also recorded: displays no inhibition of ODC activity”.

Consider Antizyme [AZ_WT], for which, in experiment [1] (equimolar AZI, Figure 4), the “Inhibition of ODC with AZI relative to AZ_WT or to without AZI (in words)” value is listed as “lower than in the absence of AZI”. Further, in experiment [1], the “IC50 (with AZI)/IC50 (without AZI)” value is recorded as 3.1. In the experiment on human ODC [3] (sedimentation velocity, 20°C, Figure 3), the “Size distribution of ODC in the presence of AZ (in words)” value is recorded as “disrupted dimeric ODC to form AZ-ODC complexes”. For the same substance, the “IC50 (AZ peptide)/IC50 (AZ_WT)” value at human ODC [2] was 1.0.
